Source: patent US20110263707A1, “MOSQUITO REPELLENT” (BIO & HNT, INC., priority 2007, published 2011)
Where “and” joins values, the source holds several entries; their conditions need not be identical. Equal entries are not always repeated.

Tested on: Aedes aegypti
Assay: Examination of repellent activity using skin test (treated forearm in cage of mated female mosquitoes)
Format: in vivo
Settings: for Effective repellency duration (average ± standard deviation): protection time until arm bitten by two cumulative mosquitoes
Text: In this embodiment, Aedes aegypti was used test mosquitoes. The Aedes aegypti was supplied from Korea Research Institute of Bioscience and Biotechnology and reared indoor from generation to generation. The larvae of the Aedes aegypti were reared in a plastic container of 22×14×7 cm containing distilled water with a one to one mixture of chicken feed and yeast. Mosquito pupae were transferred into a paper cup and then placed in a rearing cage to emerge as adults. Here, the rearing cage was constructed with metal net. Males and females of the adult mosquitoes at one to one ratio were put in a rearing cage for two or three days for mating. The female mosquitoes were then used for repellency tests. Eight percent (8%) sugar water was supplied for the adult mosquitoes. The following rearing conditions were maintained: light condition of 16 h:8 h (day:night), temperature of 27±2° C., and relative humidity of 80±10%. In order to examine effectiveness of the mosquito repellents of the prepared sample solutions, one (1) […] of a sample solution was uniformly applied, using a metal rod, on a forearm of a volunteer human test subject between a wrist and an elbow. Thereafter, the arm treated with the test solution was inserted in a bioassay cage constructed with Plexiglass of 50×50×50 cm containing approximately 100 mated female mosquitoes. The number of mosquitoes trying to bite was recorded for three minutes in every thirty minutes for up to 4 hours. The time required to get the arm bitten by two cumulative mosquitoes was regarded as effective repellency duration. A net window of 40×40 cm was present at each side and top of the Plexiglass bioassay cage to allow air ventilation. A 15×15 cm hole was prepared at the front side of the Plexiglass bioassay cage and a long net sleeve was attached to the hole so that the test arm could be put into the cage for repellency test. At the beginning of each repellency test, an arm treated with solvent only was placed in the bioassay cage containing mosquitoes, in order to examine blood feeding activity of the mated female test mosquitoes. This test with the bioassay cage was carried out only when the arm was bitten by at least two mosquitoes for initial three minutes. In Table 3 and Table 4, the repellent efficiency was calculated using the following Equation 1. [formula]

[1] = concentration 2% (0.05 mg/cm^3), 30 minutes
[2] = concentration 2% (0.05 mg/cm^3), 60 minutes
[3] = concentration 2% (0.05 mg/cm^3), 90 minutes
[4] = concentration 2% (0.05 mg/cm^3), 120 minutes
[5] = concentration 2% (0.05 mg/cm^3), 150 minutes
[6] = concentration 2% (0.05 mg/cm^3), 180 minutes
[7] = concentration 2% (0.05 mg/cm^3), 210 minutes
[8] = concentration 2% (0.05 mg/cm^3), 240 minutes
[9] = concentration 2% in 91% isopropyl alcohol (0.05 mg/cm^3)
[10] = concentration 10% (0.25 mg/cm^3), 30 minutes
[11] = concentration 10% (0.25 mg/cm^3), 60 minutes
[12] = concentration 10% (0.25 mg/cm^3), 90 minutes
[13] = concentration 10% (0.25 mg/cm^3), 120 minutes
[14] = concentration 10% (0.25 mg/cm^3), 150 minutes
[15] = concentration 10% (0.25 mg/cm^3), 180 minutes
[16] = concentration 10% (0.25 mg/cm^3), 210 minutes
[17] = concentration 10% (0.25 mg/cm^3), 240 minutes
[18] = concentration 10% in 91% isopropyl alcohol (0.25 mg/cm^3), maximum measurement time 240 minutes

Compound | Repellent efficiency (%) per time [1] | Repellent efficiency (%) per time [2] | Repellent efficiency (%) per time [3] | Repellent efficiency (%) per time [4] | Repellent efficiency (%) per time [5] | Repellent efficiency (%) per time [6] | Repellent efficiency (%) per time [7] | Repellent efficiency (%) per time [8] | Effective repellency duration (average ± standard deviation) [9] | Repellent efficiency (%) per time [10] | Repellent efficiency (%) per time [11] | Repellent efficiency (%) per time [12] | Repellent efficiency (%) per time [13] | Repellent efficiency (%) per time [14] | Repellent efficiency (%) per time [15] | Repellent efficiency (%) per time [16] | Repellent efficiency (%) per time [17] | Effective repellency duration (average ± standard deviation) [18] | Effective repellency duration (average ± standard deviation) (concentration 2% in 91% isopropyl alcohol (0.05 mg/cm^3), listed as neric acid) | Effective repellency duration (average ± standard deviation) (concentration 10% in 91% isopropyl alcohol (0.25 mg/cm^3), maximum measurement time 240 minutes, listed as neric acid)
CCN(CC)C(=O)c1cccc(C)c1 [DEET, N,N-diethyl-m-toluamide] | 100% | 0% | 0% | 0% | 0% | 0% | 0% | 0% | 70 min and 70 ± 10.0 min | 100% | 100% | 100% | 100% | 87.5% | 81.3% | 78.1% | 71.9% | 218 min and 218 ± 10.8 min |  | 
CC(C)=CCC/C(C)=C\C(=O)O [Neric acid, (Z,E)-3,7-dimethyl-2,6-octadienoic acid] | 100% | 83.1% | 70.4% | 52.1% | 39.4% | 26.8% | 18.3% | 14.1% | 106 ± 16.3 min | 100% | 100% | 100% | 100% | 100% | 100% | 100% | 95.3% | 240 ± 0 min | 106 min | 240 min
CCC(C)OC(=O)N1CCCCC1CCO (centres unmarked) [Picadirin] |  |  |  |  |  |  |  |  |  | 85.0% | 85.0% | 85.0% | 80.0% | 75.0% | 72.5% | 62.5% | 47.5% | 158 min and 158 ± 27.5 min |  | 
